Results as given in patent US7056940B2, “Insecticidal 3-(2,6-disubstituted phenyl)-5-[5-arylthien-2-yl]-1,2,4-triazoles” (Dow AgroSciences LLC, priority 2001, dated 2006).

Assays:
Assay type in all cases: in vivo
[1] = test system: Cabbage Looper (Trichoplusia ni); experiment: Insecticidal test for cabbage looper, treated cabbage leaf disc; parameters: key: A: 90–100; B: 80–89; C: 70–79; D: 60–69; E: 50–59; F: less than 50; G: Inactive; conditions: cabbage leaf-dip, 2nd instar larvae, 5 days
[2] = test system: Cotton Aphid (Aphis gossypii); experiment: Insecticidal test for cotton aphid, spray on infested squash cotyledons; conditions: 50 ppm spray, 3 days
How it was run: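 Squash cotyledons were infested with all aphid life stages 16–20 h beforehand, then sprayed on both sides to runoff with 50 ppm compound (acetone:ethanol, 0.05% Tween 20). After 3 days at 26 °C and 40% RH, aphids were counted under a microscope, and percent control is population reduction versus untreated.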

[3] = test system: Two-spotted Spider Mite (Tetranychus urticae); experiment: Insecticidal test for two-spotted spider mite, ovicide method; parameters: key: A: 90–100; B: 80–89; C: 70–79; D: 60–69; E: 50–59; F: less than 50; G: Inactive; conditions: cotton leaf discs, 6 days
How it was run: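 Cotton leaf discs (eight, 2.2 cm each) received ten adult female two-spotted spider mites, which laid eggs for 24 hours before being taken off. The discs were then set on an agar substrate and kept at 24° C. and 90% RH for 6 days to assess ovicidal control.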

[4] = test system: Beet Armyworm (Spodoptera exigua); experiment: Insecticidal test for beet armyworm, treated lepidopteran diet; parameters: key: A: 90–100; B: 80–89; C: 70–79; D: 60–69; E: 50–59; F: less than 50; G: Inactive; conditions: on diet surface, second-instar larvae, 5 days
How it was run: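 Test compound formulated at 400 ppm in 2:1 acetone:tap water; 250 μL applied onto surface of modified Shorey lepidopteran diet, five cups per compound (one cup = one replicate). After solvent air-dried, one second-instar larva placed on treated diet per cup.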

[5] = test system: Tobacco Budworm (Heliothis virescens); experiment: Insecticidal test for tobacco budworm, treated cotton cotyledon leaf disc; parameters: key: A: 90–100; B: 80–89; C: 70–79; D: 60–69; E: 50–59; F: less than 50; G: Inactive; conditions: cotton cotyledon leaf-dip, 2nd instar larvae, 5 days
[6] = test system: Sweetpotato Whitefly (Bemisia tabacia); experiment: Insecticidal test for sweetpotato whitefly, spray on cotton plants; parameters: key: A: 90–100; B: 80–89; C: 70–79; D: 60–69; E: 50–59; F: less than 50; G: Inactive; conditions: 200 ppm spray, 13 days, large nymphs
How it was run: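 Five-week cotton plants trimmed to two leaves carried 2 days of whitefly oviposition, then adults were removed. Leaves were sprayed top and bottom with 200 ppm compound in water with 0.05% Tween 20 (acetone:ethanol co-solvent), four replicates. After 13 days at 28° C/60% RH, 3rd–4th instar nymphs were counted; percent control versus solvent-only sprayed plants.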

Row | Structure (SMILES) | CL: activity at 400 ppm against cabbage looper (% control rating) [1] | CA: activity at 50 ppm against cotton aphid (% control rating) [2] | SM: activity against two-spotted spider mite (% control rating) [3] | BAW: activity at 400 ppm against beet armyworm (% control rating) [4] | TBW: activity at 400 ppm against tobacco budworm (% control rating) [5] | WF: activity at 200 ppm against whitefly (% control rating) [6]
1 | Cc1c(-c2nc(-c3c(F)cccc3Cl)nn2C)csc1-c1ccc(OC(F)(F)CF)cc1 | F (less than 50) | A (90–100) | G | A (90–100) | G | A (90–100)
2 | Cc1c(-c2nc(-c3c(F)cccc3Cl)nn2C)csc1-c1ccc(OC(F)(F)C(Cl)Cl)cc1 | A (90–100) | B (80–89) | A (90–100) | A (90–100) | A (90–100) | A (90–100)
3 | Cc1c(-c2nc(-c3c(F)cccc3Cl)nn2C)csc1-c1ccc(OC(C)C)cc1 | G | A (90–100) | G | G | F (less than 50) | G
4 | CC(C)=COc1ccc(-c2scc(-c3nc(-c4c(F)cccc4Cl)nn3C)c2C)cc1 | A (90–100) | A (90–100) | A (90–100) | A (90–100) | F (less than 50) | A (90–100)
5 | COCCOc1ccc(-c2scc(-c3nc(-c4c(F)cccc4Cl)nn3C)c2C)cc1 | B (80–89) | C (70–79) | D (60–69) | B (80–89) | G | F (less than 50)
6 | Cc1c(-c2nc(-c3c(F)cccc3Cl)nn2C)csc1-c1cccc(C(F)(F)F)c1F | A (90–100) | A (90–100) | F (less than 50) | G | G | E (50–59)
7 | Cc1c(-c2nc(-c3c(F)cccc3Cl)nn2C)csc1-c1ccc(Cl)cc1F | A (90–100) | A (90–100) | A (90–100) | G | F (less than 50) | G
8 | Cc1c(-c2nc(-c3c(F)cccc3Cl)nn2C)csc1-c1ccc(Cl)c(F)c1 | A (90–100) | A (90–100) | A (90–100) | F (less than 50) | G | G
9 | Cc1c(-c2nc(-c3c(F)cccc3Cl)nn2C)csc1-c1ccc(F)cc1 | D (60–69) | B (80–89) | B (80–89) | G | F (less than 50) | F (less than 50)
10 | Cn1nc(-c2c(F)cccc2Cl)nc1-c1csc(-c2ccc(C(F)(F)F)cc2F)c1 | A (90–100) | C (70–79) | C (70–79) | A (90–100) | D (60–69) | F (less than 50)
11 | Cc1c(-c2ccc(OC(F)(F)C(F)Br)cc2)csc1-c1nc(-c2c(F)cccc2Cl)nn1C (stereo not drawn) | A (90–100) | A (90–100) | G | A (90–100) | B (80–89) | A (90–100)
12 | Cc1c(-c2ccc(OC(F)(F)C(F)Cl)cc2)csc1-c1nc(-c2c(F)cccc2Cl)nn1C (stereo not drawn) | A (90–100) | B (80–89) | C (70–79) | A (90–100) | B (80–89) | A (90–100)
13 | Cc1c(-c2ccc(OC(F)(F)C(F)C(F)(F)F)cc2)csc1-c1nc(-c2c(F)cccc2Cl)nn1C (stereo not drawn) | A (90–100) | D (60–69) | A (90–100) | A (90–100) | A (90–100) | A (90–100)
14 | Cc1c(-c2nc(-c3c(F)cccc3Cl)nn2C)sc(Br)c1-c1ccc(OC(F)(F)C(F)Br)cc1 (stereo not drawn) | A (90–100) | B (80–89) | G | A (90–100) | F (less than 50) | F (less than 50)
